In DBAASP:
Converted amounts (≈) assume the structure as drawn.

Columns and labels:
Experiment in all cases: ≥ marks a high value that may be exact or a test limit, other limits are often not marked, values filed in µg/mL are converted to µM
[1] = tested on: Staphylococcus aureus ATCC 25923
Escherichia coli UB1005 = tested on: Escherichia coli UB1005
[2] = tested on: Pseudomonas aeruginosa PAO1
[3] = tested on: Escherichia coli ATCC 25922
[4] = tested on: Klebsiella pneumoniae ATCC 700603
[5] = tested on: Staphylococcus aureus ATCC 6538
[6] = tested on: Pseudomonas aeruginosa ATCC 9027
Escherichia coli = tested on: Escherichia coli
Bacillus cereus = tested on: Bacillus cereus
[7] = tested on: Staphylococcus aureus ATCC 29213
[8] = tested on: Candida albicans ATCC 10231
[9] = tested on: Pseudomonas aeruginosa ATCC 27853
[10] = tested on: Enterococcus faecalis ATCC 29212
[11] = tested on: Candida albicans ATCC 2002

CC[C@H](C)[C@H](NC(=O)[C@H](CCCN=C(N)N)NC(=O)[C@H](CCCN=C(N)N)NC(=O)[C@@H]1CCCN1C(=O)[C@H](Cc1c[nH]c2ccccc12)NC(=O)[C@H](CCCN=C(N)N)NC(=O)[C@@H]1CCCN1C(=O)[C@H](CCCN=C(N)N)NC(=O)[C@@H]1CCCN1C(=O)[C@H](CC(C)C)NC(=O)[C@H](Cc1ccc(O)cc1)NC(=O)[C@@H]1CCCN1C(=O)[C@@H]1CCCN1C(=O)[C@H](CCCCN)NC(=O)[C@H](CCCN=C(N)N)NC(=O)[C@@H](N)C(C)C)C(=O)N[C@@H](Cc1ccc(O)cc1)C(=O)N[C@@H](CC(N)=O)C(=O)N[C@@H](CCCN=C(N)N)C(N)=O [VRKPPYLPRPRWPRRIYNR]
MIC [1]: 0.198 µM (≈ 0.5 µg/mL) | MIC (Escherichia coli UB1005): 0.516 µM (≈ 1.3 µg/mL) | MIC [2]: 2.24 µM (≈ 5.65 µg/mL)

CC[C@H](C)[C@H](NC(=O)[C@@H](NC(=O)[C@@H]1CCCN1C(=O)[C@@H](NC(=O)[C@@H]1CCCN1C(=O)[C@H](CCCCN)NC(=O)[C@H](CCCCN)NC(=O)[C@H](CO)NC(=O)CN)C(C)C)[C@@H](C)CC)C(=O)N[C@@H](Cc1ccc(O)cc1)C(=O)N[C@H]1CSSC[C@@H](C(=O)N[C@@H](CCC(N)=O)C(=O)N[C@@H](CCCN=C(N)N)C(=O)N[C@@H](CCSC)C(=O)O)NC(=O)[C@H](CCCCN)NC(=O)CNC(=O)[C@H](CO)NC(=O)[C@H](CCCN=C(N)N)NC(=O)[C@H](CCCN=C(N)N)NC(=O)[C@H](CCC(N)=O)NC1=O [GSKKPVPIIYCQRRSGKCQRM]
MIC [3]: 13.1 µM (≈ 32 µg/mL) | MIC [4]: 13.1 µM (≈ 32 µg/mL)

CC(C)C[C@H](NC(=O)[C@H](C)NC(=O)[C@H](CC(C)C)NC(=O)[C@H](CCCCN)NC(=O)[C@H](C)NC(=O)[C@H](CC(C)C)NC(=O)[C@H](CCCCN)NC(=O)[C@H](CCCCN)NC(=O)[C@H](C)NC(=O)[C@H](CC(C)C)NC(=O)[C@H](CCCCN)NC(=O)[C@H](CCCCN)NC(=O)[C@H](C)NC(=O)[C@@H](N)Cc1ccccc1)C(N)=O [FAKKLAKKLAKLAL]
MIC [5]: 3.24 µM (≈ 5 µg/mL) | MIC [6]: 64.8 µM (≈ 99.9 µg/mL)

CC[C@H](C)[C@H](NC(=O)[C@@H](NC(=O)[C@@H](NC(=O)[C@H](CCCCN)NC(=O)[C@@H](N)Cc1ccccc1)C(C)C)C(C)C)C(=O)N[C@@H](CO)C(=O)N[C@@H](CCCCN)C(=O)N1CCC[C@H]1C(=O)NCC(=O)N[C@@H](CC(C)C)C(=O)N[C@@H](CO)C(=O)N[C@H](C(=O)N[C@@H](CCCN=C(N)N)C(=O)N[C@H](C(=O)NCC(=O)N[C@H](C(=O)N[C@@H](C)C(=O)N[C@@H](CC(C)C)C(=O)N[C@H](C(=O)N[C@H](C(=O)O)[C@@H](C)O)C(C)C)[C@@H](C)O)C(C)C)C(C)C [FKVVISKPGLSVRVGTALVT]
MIC (Escherichia coli): > 61.8 µM | MIC (Bacillus cereus): ≥ 61.8 µM

CC[C@H](C)[C@H](NC(=O)[C@H](CCCN=C(N)N)NC(=O)[C@H](CCCN=C(N)N)NC(=O)[C@@H]1CCCN1C(=O)[C@@H]1CCCN1C(=O)[C@H](CCCN=C(N)N)NC(=O)[C@@H]1CCCN1C(=O)[C@H](CCCN=C(N)N)NC(=O)[C@@H]1CCCN1C(=O)[C@H](CC(C)C)NC(=O)[C@H](Cc1ccc(O)cc1)NC(=O)[C@@H]1CCCN1C(=O)[C@@H]1CCCN1C(=O)[C@H](CCCCN)NC(=O)[C@@H]1CCCN1C(=O)[C@@H](N)C(C)C)C(=O)N[C@@H](Cc1ccc(O)cc1)C(=O)N[C@@H](CC(N)=O)C(=O)N[C@@H](CCCN=C(N)N)C(N)=O [VPKPPYLPRPRPPRRIYNR]
MIC [1]: 3.37 µM (≈ 8 µg/mL) | MIC (Escherichia coli UB1005): 2.11 µM (≈ 5 µg/mL) | MIC [2]: 19.1 µM (≈ 45.2 µg/mL)

CC[C@H](C)[C@H](NC(=O)[C@H](CCSC)NC(=O)[C@H](CO)NC(=O)[C@@H](NC(=O)[C@H](CC(C)C)NC(=O)[C@H](CO)NC(=O)[C@@H]1CCCN1C(=O)[C@@H](NC(=O)[C@@H](NC(=O)[C@H](CCCCN)NC(=O)[C@H](CO)NC(=O)[C@H](C)NC(=O)[C@@H](NC(=O)[C@H](CCCN=C(N)N)NC(=O)CNC(=O)[C@@H](NC(=O)[C@H](Cc1ccccc1)NC(=O)[C@H](CO)NC(=O)[C@@H](N)CC(C)C)C(C)C)C(C)C)C(C)C)C(C)C)[C@@H](C)CC)C(=O)N[C@@H](CCCCN)C(=O)O [LSFVGRVASKVVPSLISMIK]
MIC (Escherichia coli): 120 µM (≈ 256 µg/mL) | MIC (Bacillus cereus): ≥ 120 µM

CC[C@H](C)[C@H](NC(=O)[C@@H]1CCCN1C(=O)[C@H](CO)NC(=O)[C@@H](NC(=O)[C@@H](NC(=O)[C@@H](NC(=O)[C@H](C)NC(=O)[C@H](CC(C)C)NC(=O)[C@H](CCCCN)NC(=O)[C@H](CO)NC(=O)[C@H](C)NC(=O)[C@@H](NC(=O)[C@H](CCCCN)NC(=O)[C@@H](NC(=O)[C@@H](NC(=O)[C@@H](N)CO)[C@@H](C)O)C(C)C)C(C)C)C(C)C)C(C)C)C(C)C)C(=O)N[C@@H](CO)C(=O)N[C@@H](CCCCN)C(=O)NCC(=O)N[C@@H](CO)C(=O)O [STVKVASKLAVVVSPISKGS]
MIC (Escherichia coli): > 131 µM | MIC (Bacillus cereus): ≥ 131 µM

CC(C)C[C@H](NC(=O)[C@H](CCCCN)NC(=O)[C@H](Cc1ccccc1)NC(=O)[C@H](CC(C)C)NC(=O)[C@H](CC(C)C)NC(=O)CNC(=O)[C@H](CCCCN)NC(=O)[C@H](CC(C)C)NC(=O)[C@H](CCCCN)NC(=O)[C@@H]1CCCN1C(=O)[C@H](CC(C)C)NC(=O)[C@H](CC(C)C)NC(=O)[C@H](CC(C)C)NC(=O)[C@H](CCCCN)NC(=O)[C@H](CC(C)C)NC(=O)[C@H](CC(C)C)NC(=O)[C@H](CCCCN)NC(=O)[C@@H](N)Cc1ccc(O)cc1)C(N)=O [YKLLKLLLPKLKGLLFKL]
MIC [7]: 1.14 µM (≈ 2.45 µg/mL) | MIC [8]: 69.6 µM (≈ 149 µg/mL) | MIC [9]: 3.96 µM (≈ 8.48 µg/mL)

CC(C)C[C@H](NC(=O)[C@H](C)NC(=O)[C@H](CCCCN)NC(=O)[C@H](C)NC(=O)[C@H](CC(C)C)NC(=O)[C@H](CCCCN)NC(=O)[C@H](CCCCN)NC(=O)[C@H](C)NC(=O)[C@H](CC(C)C)NC(=O)[C@H](CCCCN)NC(=O)[C@H](C)NC(=O)[C@H](CC(C)C)NC(=O)[C@H](CCCCN)NC(=O)[C@H](CCCCN)NC(=O)[C@H](C)NC(=O)[C@@H](N)Cc1ccccc1)C(N)=O [FAKKLAKLAKKLAKAL]
MIC [5]: > 115 µM | MIC [6]: 115 µM (≈ 200 µg/mL)

CC(C)C[C@H](NC(=O)[C@H](CCCCN)NC(=O)[C@H](CCCCN)NC(=O)[C@H](CC(C)C)NC(=O)[C@H](CC(C)C)NC(=O)[C@H](CCCCN)NC(=O)[C@H](CCCCN)NC(=O)[C@H](CC(C)C)NC(=O)[C@H](CCCCN)NC(=O)[C@H](CCCCN)NC(=O)[C@H](CC(C)C)NC(=O)[C@H](CC(C)C)NC(=O)[C@H](CCCCN)NC(=O)[C@H](CCCCN)NC(=O)[C@H](CC(C)C)NC(=O)[C@H](CC(C)C)NC(=O)[C@H](CCCCN)NC(=O)[C@@H](N)Cc1ccc(O)cc1)C(N)=O [YKLLKKLLKKLKKLLKKL]
MIC [7]: 18.1 µM (≈ 40.6 µg/mL) | MIC [8]: 27.9 µM (≈ 62.4 µg/mL) | MIC [9]: 6.31 µM (≈ 14.1 µg/mL)

CSCC[C@H](NC(=O)[C@H](CCCN=C(N)N)NC(=O)[C@H](Cc1c[nH]c2ccccc12)NC(=O)[C@H](CCC(N)=O)NC(=O)[C@H](Cc1c[nH]c2ccccc12)NC(=O)[C@H](CCCN=C(N)N)NC(=O)[C@H](CCCN=C(N)N)NC(=O)[C@H](C)NC(=O)[C@H](CCCCN)NC(=O)[C@@H](N)Cc1ccccc1)C(=O)N[C@@H](CCCCN)C(=O)N[C@@H](CCCCN)C(=O)O [FKARRWQWRMKK]
MIC [3]: 116 µM (≈ 200 µg/mL) | MIC [10]: 58.2 µM (≈ 100 µg/mL)

CC[C@H](C)[C@H](NC(=O)[C@H](C)NC(=O)[C@H](CCCN=C(N)N)NC(=O)[C@H](Cc1ccc(O)cc1)NC(=O)[C@H](CC(C)C)NC(=O)[C@H](CC(N)=O)NC(=O)[C@H](Cc1ccc(O)cc1)NC(=O)CNC(=O)[C@H](C)NC(=O)[C@@H](NC(=O)[C@@H](NC(=O)[C@@H](NC(=O)[C@H](CCCN=C(N)N)NC(=O)[C@@H](NC(=O)[C@@H](NC(=O)[C@@H](NC(=O)[C@@H]1CCCN1)C(C)C)C(C)C)[C@@H](C)CC)[C@@H](C)O)C(C)C)C(C)C)C(=O)N[C@@H](CCCCN)C(=O)N[C@@H](CCCCN)C(=O)N[C@@H](CCCCN)C(=O)O [PVVIRTVVAGYNLYRAIKKK]
MIC [1]: 43.7 µM (≈ 100 µg/mL) | MIC [11]: 16.4 µM (≈ 37.5 µg/mL)

CC(C)C[C@H](NC(=O)[C@H](CCCCN)NC(=O)[C@H](C)NC(=O)[C@H](CC(C)C)NC(=O)[C@H](CC(C)C)NC(=O)[C@H](CCCCN)NC(=O)[C@H](C)NC(=O)[C@@H](N)Cc1ccccc1)C(=O)N[C@@H](C)C(=O)N[C@@H](CCCCN)C(=O)N[C@@H](C)C(=O)N[C@@H](CCCCN)C(=O)N[C@@H](C)C(N)=O [FAKLLAKLAKAKA]
MIC [5]: 72.8 µM (≈ 99.9 µg/mL) | MIC [6]: 146 µM (≈ 200 µg/mL)

CC(C)C[C@H](NC(=O)[C@H](C)NC(=O)[C@H](CCCCN)NC(=O)[C@H](CCCCN)NC(=O)[C@H](CC(C)C)NC(=O)[C@H](C)NC(=O)[C@H](CCCCN)NC(=O)[C@H](Cc1ccccc1)NC(=O)[C@H](CC(C)C)NC(=O)[C@H](CC(C)C)NC(=O)[C@H](CCCCN)NC(=O)[C@H](C)NC(=O)[C@@H](N)Cc1ccccc1)C(N)=O [FAKLLFKALKKAL]
MIC [5]: 33.5 µM (≈ 50 µg/mL) | MIC [6]: 134 µM (≈ 200 µg/mL)

CC(C)C[C@H](NC(=O)[C@H](CCCCN)NC(=O)[C@H](CC(C)C)NC(=O)[C@H](CCCCN)NC(=O)[C@H](CC(C)C)NC(=O)[C@H](C)NC(=O)[C@H](CCCCN)NC(=O)[C@H](C)NC(=O)[C@H](CC(C)C)NC(=O)[C@H](CC(C)C)NC(=O)[C@H](CCCCN)NC(=O)[C@H](C)NC(=O)[C@@H](N)Cc1ccccc1)C(N)=O [FAKLLAKALKLKL]
MIC [5]: 6.86 µM (≈ 9.99 µg/mL) | MIC [6]: 17.2 µM (≈ 25 µg/mL)
